Where “and” joins values, the source holds several entries; their conditions need not be identical. Identical values can stand only once. Like-named read-outs stand apart in the source and are kept apart here.
Columns and labels:
BoNT/A LC [1] = molecular target: T1, BoNT/A LC (Clostridium botulinum, UniProt P0DPI0); assay: biochemical; set-up: species or system C. botulinum; details: read-out: % inhibition of the LCA endopeptidase activity
BoNT/A LC [2] = molecular target: T1, BoNT/A LC; assay: biochemical; format: biochemical, C. botulinum
BoNT/A LC [3] = molecular target: T1, BoNT/A LC; assay: biochemical; format: binding, C. botulinum
BoNT/A LC [4] = molecular target: T1, BoNT/A LC; assay: biochemical; format: binding, C. botulinum; remark: listed apart in the source

T1 sequence (P0DPI0 2-448 limits assumed): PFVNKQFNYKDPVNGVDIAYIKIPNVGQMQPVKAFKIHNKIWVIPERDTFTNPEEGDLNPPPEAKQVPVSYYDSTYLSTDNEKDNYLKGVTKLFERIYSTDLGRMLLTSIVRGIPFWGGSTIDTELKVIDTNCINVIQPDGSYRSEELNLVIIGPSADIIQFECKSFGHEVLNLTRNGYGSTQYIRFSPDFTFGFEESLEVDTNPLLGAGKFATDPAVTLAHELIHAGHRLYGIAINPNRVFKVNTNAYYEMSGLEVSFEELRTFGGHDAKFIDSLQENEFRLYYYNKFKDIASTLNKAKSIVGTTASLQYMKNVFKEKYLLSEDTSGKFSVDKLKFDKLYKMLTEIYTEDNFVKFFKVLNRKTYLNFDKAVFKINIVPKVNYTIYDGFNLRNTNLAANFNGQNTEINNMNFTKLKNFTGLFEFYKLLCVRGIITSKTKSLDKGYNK

O=c1ccc2cc3c(-c4ccc([N+](=O)[O-])cc4)coc3cc2o1 [Compound 1, 3-(4-nitrophenyl)-7H-furo[3,2-g]chromen-7-one]
inhibition at 81 µM (BoNT/A LC [1]): ~100% | Vmax (BoNT/A LC [2]): 2.13 ± 0.5 RFU/s and 2.09 ± 0.2 RFU/s and 1.56 ± 1.1 RFU/s | type of inhibition (BoNT/A LC [2]): mixed (non-competitive) type of inhibition | Ki (BoNT/A LC [2]; Ki): 5.8 ± 0.7 µM | Ki (BoNT/A LC [2]; Ki′): 11.5 ± 2.9 µM | corrected intensity of Trp fluorescence signal at λmax of BoNT/A LC (signal reduced to) (BoNT/A LC [3]): 88% and 84% and 73% and 59% | n (number of binding sites) (BoNT/A LC [3]): 0.90 | ΔH (BoNT/A LC [3]): -16.9 kcal/mol | ΔS (BoNT/A LC [3]): −0.15 kJ · mol^−1 K^−1 | Kd (BoNT/A LC [3]; Ka (binding constant)): 38 µM and 115 µM | Ka (association constant) (BoNT/A LC [4]): 760900 M⁻¹ | Kd (BoNT/A LC [4]): 1.31 µM | N (number of binding sites, binding stoichiometry) (BoNT/A LC [4]): 2.8 and 2.760 | ΔH (change in enthalpy) (BoNT/A LC [4]): -2.39 kcal/mol | ΔS (change in entropy) (BoNT/A LC [4]): 79.05 J/mol · K | antidote activity against paralytic actions of BoNT (BoNT): efficient antidote with the ability to mitigate the paralytic actions of BoNT

Source: US20220226282A1 (priority 2021, published 2022)
